From patent publication USRE37770E1, “Treatment of skin conditions by use of PPARα activators” (The Regents of the University of California, priority 1997, dated 2002) come the findings set out here.

The test system of test [1] is full-thickness flank skin from the fetal rats. The experiment in a line: Transepidermal water loss (TEWL) of fetal rat skin explants in organ culture (barrier function). Type of test: cell-based, Sprague-Dawley rats. How it is done: Timed pregnant Sprague-Dawley rats (plug date=day 0) were obtained from Simonsen (Gilroy, Calif., USA) and fetuses were delivered prematurely on day 17. Transepidermal water loss (TEWL) was measured in excised full-thickness flank skin from the fetal rats after various times in culture. The skin explants were placed dermis-side down onto collagen membrane inserts (3μ pore size) in medium M-199 (serum-free), and submerged, and the lateral edges and dermal surface were sealed with petrolatum, such that water loss occurred only through the epidermal surface. Explant samples were weighed hourly, at ambient temperature (24±3° C.) and humidity (40±5%), over 6 hours using a Cahn balance (sensitivity 0.001 mg). TEWL levels are reported as milligrams of water lost per square millimeter of epidermal surface per hour. Fatty acids and clofibrate (p-chlorophenoxyisobutyric acid) were added to the medium bound to 0.5% (weight/volume) bovine serum albumin (BSA). Isoprenoids and oxysterols were added in ethanol (≦0.1%) and juvenile hormone III was added as a dimethylsulfoxide (DMSO) solution (≦0.1%). Control explants were incubated in the presence of the appropriate vehicle (≦0.1% DMSO or ethanol, and/or ≦0.5% BSA). Skin explants from gestational day 17 rats were incubated in the presence of either various activators or vehicle, and transepidermal water loss was measured after two days. The activators and the concentrations at which they were used were as follows: […]

In test [2] the test system is involucrin mRNA. Briefly: Involucrin mRNA in keratinocytes by Northern Blot. It is filed as cell-based, Human. How it is done:
(§1) Human keratinocyte cells were incubated in culture containing calcium at a concentration of 0.03 mM Ca^++ (a level that is too low to induce differentiation). Also included in the culture medium were clofibrate at 400 μM or ETYA at 10 μM and 20 μM, while separate cell cultures were maintained as controls with neither clofibrate nor ETYA. The production of mRNA for both involucrin and transglutaminase was measured at intervals over a 48-hour time period (0, 6, 12, 24, and 48 hours) by Northern Blot analysis. In each case, the lighter bars represent the control cells and the darker bars the cells incubated in the clofibrate-containing medium. The degree of mRNA generated is expressed as a percent of the control at zero hours.
(§2) Human epidermis was isolated from newborn foreskins and keratinocytes were plated in serum-free keratinocyte growth medium (“KGM”; Clonetics, San Diego, Calif. USA), using conventional techniques. Cells were treated with either the test compounds in vehicle or vehicle alone (<0.1% ethanol) for 24 or 48 hours. The test compounds were obtained from Sigma Chemical Co. (St. Louis. Mo. USA) and were stored as 15 mM stock solutions at −20° C. Mevalonate was solubilized in sterile water.
(§3) Total RNA was isolated by using TRIZOL (Sigma Chemical Co.), following the manufacturer's protocol. Ethanol-precipitate RNA pellets were suspended in sterile, diethylpyrocarbonate (DEPC)-treated water, and RNA was quantified by absorbance at 260 nm using the 260/280 nm ratio as an index of purity. RNA (15 μg per sample) was size fractionated through a 1% agarose gel containing 2.2 M formaldehyde. RNA integrity was visualized following acridine orange staining of the gel following electrophoresis. The RNA was transfered to a nylon membrane that was subsequently baked at 80° C. for 2 hours. Blots were hybridized with the appropriate ^32p-labeled probe overnight at 65° C. Washes were then performed in a solution containing 0.1% SSC and 0.1% sodium dedecyl sulfate (SDS) for 20 minutes at room temperature, followed by a 20-minute wash at 65° C. Autoradiography was performed at −70° C. Blots were probed with β-actin to confirm equal loading. Appropriate bands were quantified by densitometry.
(§4) Northern blot analyses were performed on keratinocytes maintained in low calcium (0.03 mM) and incubated for 24 hours in the presence of vehicle alone (<0.1% ethanol) or vehicle containing 25-hydroxycholesterol (10 μM), 22(R)-hydroxycholesterol (10 μM) cholesterol (10 μM), or mevalonate (500 μM) (individually). The mRNA levels of involucrin (“INV”) and transglutaminase (“TG'ase”) are shown in the bar graph of FIG. 14a, the INV indicated by clear bars and the TG'ase by shaded bars, both with error limits shown.

Test [3] has as its system transglutaminase mRNA. The experiment in a line: Transglutaminase mRNA in keratinocytes by Northern Blot. It is filed as cell-based, Human. The procedure: as §1, §2, §3, §4
Test [4] relates to involucrin protein. Briefly: Involucrin protein level in keratinocytes by Western Blot. Type of test: cell-based, Human. The procedure:
Measurements of the level of the involucrin protein itself were performed in the culture medium by Western Blot. Various incubations were performed, in media containing clofibrate at concentrations ranging from 0 (vehicle only) to 400 μM and calcium ion at both 0.03 mM and 1.2 mM. The results are shown in FIG. 9a for tests with calcium ion at 0.03 mM, and in FIG. 9b for tests with calcium ion at 1.2 mM. In these figures, the protein contents are expressed as percents of the respective measurements taken from media incubated for the same period of time but in the absence of clofibrate.
The procedures of Example 8 were followed, and measurements were taken on the involucrin protein levels from cells incubated at various concentrations of farnesol and juvenile hormone III ranging from 0 (vehicle only) to 15 μM, in media containing 0.03 mM and 1.2 mM calcium ion, for 24 hours. The results are shown in FIG. 10 for farnesol and FIG. 11 for juvenile hormone III, in 0.03 mM Ca^++.
Protein concentration was assessed by protein electrophoresis and Western blotting. Cells were lysed is 2% SDS and the lysate sonicated. Protein determinations were made by use of a Bicinchoninic add protein assay (Pierce Chemical Company, Rockford, Ill. USA). Following protein determination, equal amounts at protein (50 μg) were separated by electrophoresis an 7.5% polyacrylamide gels and electroblotted onto polyvinylidene […] membranes (0.2-μ, obtained from Bio-Rad Laboratories Hercules, Calif., USA). Involucrin protein was detected by incubation over-night at 4° C. C. with a polyclonal rabbit anti-human involucrin antibody (1:1000 dilution). The involucrin-specific bands on the autoradiograms were quantitated by densitometry by densitometry. Transglutaminase protein expression was measured in a similar mmaner, using stacking, sample and running buffers containing 4 M urea, and the gels following electrophoresis were washed in 4 M urea, 25 mM TRIS-HCl, pH 7.4, 7.5 mM NaCl, 0.1 mM dithiothreitol (DTT), and 2 mM ethylenediamine tetraacetic acid for 90 minutes prior to electoblotting, allowing the transglutaminase to be detected by antibody. Specific bands on the autoradiograms were quantified by densitometry.
For orientation: A western blot detects proteins with antibodies after separation by electrophoresis.

For test [5], the system named is Normal human keratinocytes. Briefly: Cornified envelope formation (35S incorporation) in keratinocytes. It is filed as cell-based. The settings on record: 48 hours; for increase in cornified envelope (CE) formation: 10 μM; for Cornified Envelope Formation (% of Control): control = 0.03 mM Ca++ vehicle, mean ± SEM.
The test system of test [6] is involucrin mRNA. The experiment in a line: Involucrin mRNA in keratinocytes by Northern Blot. It is filed as cell-based, Human. The source holds these as a separate data set.
The subject of test [7] is transglutaminase mRNA. Briefly: Transglutaminase mRNA in keratinocytes by Northern Blot. Type of test: cell-based, Human. This is another data set of the same source.
The mark [8] stands for this setting: 10 μM alone, 24 hours (Example 17).
Where [9] appears, read: low calcium (0.03 mM), 24 hours, 10 μM.
The mark [10] stands for this setting: 10 μM in the presence of mevalonate (10 μM), 24 hours.
Where [11] appears, read: 24 hours, 0 to 400 μM, in either 0.03 mM or 1.2 mM Ca++.
Where [12] appears, read: 1.2 mM Ca++, 400 μM, all time points relative to the controls.

SMILES strings stand for the structures.

In the case of `C[C@H](CCCC(C)(C)O)[C@H]1CC[C@H]2[C@@H]3CC=C4C[C@@H](O)CC[C@]4(C)[C@H]3CC[C@]12C` [25-hydroxycholesterol], the “effect on TEWL / barrier function” value in test [1] (50 μM, two days) is on record as “neither mevalonate at 200 μM, 25-hydroxy cholesterol at 50 μM), squalene at 50 μM, geranylgeraniol at 50 μM, cis-farnesol at 50 μM, nor nerolidol at 100 μM significantly affected barrier function”. In addition, the “INV mRNA level” value in test [2] (setting [8]) and in test [6] (setting [10]) was “two-fold increase” each time. Also, the “involucrin (INV) mRNA level compared to the vehicle alone” value in test [2] (setting [9]) was “approximate twofold increase”. Also, the “TG'ase mRNA level” value in test [3] (setting [8]) and in test [7] (setting [10]) was “two-fold increase” each time. Further, in test [3] (setting [9]), the “transglutaminase (TG'ase) mRNA level compared to the vehicle alone” value is on record as “approximate twofold increase”. In addition, the “increase in INV protein” value in test [4] (high calcium (1.2 mM), 15 μM) came out at 3.2 fold. The “INV protein level relative to the control” value in test [4] (low calcium (0.03 mM), 24 hours) is “approximately 1.7 fold”. The figures for the “increase in cornified envelope (CE) formation” value in test [5] (high calcium (1.2 mM)) and in test [5] (low calcium (0.03 mM)) were 1.75 fold and 1.6 fold, respectively.

For `CCOC(=O)C(C)(C)Oc1ccc(Cl)cc1` [clofibrate, 2-(4-chlorophenoxy)-2-methylpropanoic acid ethyl ester], in test [1] (Rattus norvegicus, dose response, FIGS. 4a-4c, read-out: concentration of half-maximal effect on barrier development (TEWL)), the EC50 was ~250 µM. For the same compound, the “concentration of maximal effect on barrier development (TEWL)” value in test [1] (dose response, FIGS. 4a-4c) is listed as “approximately 500 μM”. In addition, the “involucrin mRNA level” value is listed as “significantly increased levels” in test [2] (0.03 mM Ca++, 400 μM, 0-48 hours, increase beginning at six hours) and “increased mRNA levels” in test [6] (setting [12]). The “dose dependency of involucrin mRNA level” value in test [2] (setting [11]) was “increase with increasing dosages”. In addition, the “transglutaminase mRNA level” value in test [3] (0.03 mM Ca++, 400 μM, 0-48 hours, increase beginning at twelve hours) is on record as “significantly increased levels”; in test [7] (setting [12]), “increased mRNA levels”. In test [3] (setting [11]), the “dose dependency of transglutaminase mRNA level” value was “increase with increasing dosages”. Besides, in test [4] (0 to 400 μM, calcium ion at both 0.03 mM and 1.2 mM), the involucrin protein content entry was “substantial increases in the protein content”. Besides, the “Cornified Envelope Formation (% of Control)” value in test [5] (Calcium 0.03 mM, Clofibrate 50 μM) is recorded as 121.4% ± 15.7 % of Control; in test [5] (Calcium 0.03 mM, Clofibrate 200 μM), 321.3% ± 30.4 % of Control; in test [5] (Calcium 0.03 mM, Clofibrate 400 μM), 386.8% ± 28.7 % of Control; in test [5] (Calcium 1.2 mM, Clofibrate 50 μM), 458.9% ± 39.8 % of Control; in test [5] (Calcium 1.2 mM, Clofibrate 200 μM), 529.3% ± 17.4 % of Control; in test [5] (Calcium 1.2 mM, Clofibrate 400 μM) it was 581.9% ± 28.7 % of Control.
